From paper PMC3764137, “Sulphamoylated 2-Methoxyestradiol Analogues Induce Apoptosis in Adenocarcinoma Cell Lines” (PLoS ONE, 2013) come the findings set out here.

Entries after “also recorded” stand apart in the source; their conditions may differ.

Format in all cases: cell-based, human
Series [1] has as its system HeLa cells. In words: Cytotoxicity: lactate dehydrogenase assay. The conditions noted are these: 24 h, compared to vehicle-treated cells. Here is the method:
Lactate dehydrogenase (LDH) is a soluble cytosolic enzyme that catalyzes the interconversion of lactate and pyruvate. Cells release LDH during injury or cell damage, following the loss of membrane integrity consequential from either apoptosis or necrosis. LDH activity can therefore be used as an indicator of cell membrane integrity and serves as a general mean to assess for cytotoxicity resulting from exposure to chemical compounds. Cells were seeded in 96 well plates at a cell density of 5,000 cells per well (incubated at 37°C at 5% CO2). After 24 h, cells were exposed to 0.1–25 μM sulphamoylated 2ME2 analogues including vehicle-treated controls and incubated for 24 h at 37°C. Subsequently, the 200 μl medium was transferred and centrifuged at 5,000 rpm for 10 min. Supernatant (10 μl) was then transferred to an optimally clear 96 well plate. LDH reaction mix (100 μl mixed according to the supplier's manual instructions) was added to the medium. After 90 min incubation at room temperature, the absorbance was read at 460 nm (reference wavelength of 630 nm) with an ELx800 Universal Microplate Reader from Bio-Tek Instruments Inc. (Vermont, United States of America).

The subject of series [2] is HeLa cells. The series can be described thus: Cell morphology by transmission electron microscopy. Particulars: 24 h; for cell shrinkage (TEM): compared to vehicle-treated cells. Here is the method:
The in vitro influence of ESE-15-one, EMBS and ESE-16 on cell morphology was determined after exposure for 24 h using transmission electron microscopy (TEM). […] After each fixation step the samples were rinsed 3 times in 0.0075 M sodium phosphate buffer (pH 7.4). Samples were dehydrated using increasing concentrations of ethanol (30%, 50%, 70%, 90%, and 3×100%) and embedded in Quetol resin, sectioned with a microtome and placed on copper discs. Sections were contrasted with 4% aqueous uranyl acetate and Reynolds' lead citrate and viewed with a JOEL JEM 2100F transmission electron microscope (Electron Microscopy Unit, University of Pretoria, South Africa).

In series [3] the test system is HeLa cells. The series can be described thus: Cytochrome c release (FlowCellect, flow cytometry). The conditions noted are these: 0.5 μM analogues (2-methoxyestradiol-bis-sulphamate 0.55 μM), 24 h. Here is the method: (§1) This kit utilizes a unique set of buffers that selectively permeabilizes the […] without affecting the mitochondrial membrane. […] Cells (500,000) were seeded with an overnight attachment policy. After 24 h of exposure to 0.5 μM of the sulphamoylated 2ME2 analogues, cells were detached using trypsin and centrifuged at 13,000×g. Cells (500,000) were resuspended in PBS, centrifuged and resuspended in permeabilization buffer (according to supplier's instructions) for 10 min on ice. Subsequently cells were centrifuged, resuspended in 100 µl fixation buffer (according to supplier's instructions) for 20 min at room temperature, centrifuged again and resuspended in blocking buffer (150 µl). After another centrifugation step, cells were centrifuged and resuspended in blocking buffer (twice). Anti-cytochrome c-FITC (10 µl) was added to each sample and samples were incubated for 30 min at room temperature. Cells were centrifuged and blocking buffer (100 µl) was added. After centrifugation, blocking buffer (200 µl) was added to the samples for analysis via flow cytometry (FC500 System flow cytometer, Beckman Coulter South Africa (Pty) Ltd). Cells presenting with cytochrome c release were detected in the fluorescein isothiocyanate (FITC) channel (FL1) showing diffused green fluorescence. Data from at least 10 000 cells were analyzed by means of Cyflogic version 1.2.1 software (Pertu Therho, Turko, Finland).
(In general: A flow cytometer gives signals particle by particle.)

In series [4] the test system is MDA-MB-231 cells. The series can be described thus: Cytochrome c release (FlowCellect, flow cytometry). The conditions noted are these: MDA-MB-231, 0.5 μM analogues (2-methoxyestradiol-bis-sulphamate 0.55 μM), 24 h. The method, then:
as §1

A further series has as its system caspase-8. The series can be described thus: FLICE/caspase 8 colorimetric assay. The conditions noted are these: 0.5 μM, 24 h. The method, then: (§2) Possible activation of caspase 3, -6 and -8 was investigated by means of caspase 3, caspase 6 and FLICE/caspase 8 colorimetric kits, respectively. Cells (1,000,000) were seeded with an overnight attachment policy. After 24 h of exposure to 0.5 μM of the sulphamoylated 2ME2 analogues, cells were detached with trypsin and centrifuged at 13,000× g. Cells (500,000) were resuspended in 50 µl of chilled cell lysis buffer and incubated on ice for 10 min. Cells were centrifuged at 10,000×g for a min. Supernatant was transferred to a fresh tube and put on ice. After determination of the protein concentration using the bicinchoninic acid (BCA) protein assay (Thermo Fisher Scientific, Johannesburg, South Africa), 100 µg protein/50 µl cell lysis buffer was mixed with 50 µl 2X reaction buffer (containing 10 mM Dithiothreitol (DTT)). Ac-Asp-Glu-Val-Asp-p-nitroanilide (Ac-DEVD-pNA) (5 µl of 4 mM) (caspase-3-specific substrate), or 5 µl 4 mM […] (Ac-VEID-pNA) (caspase-6-specific substrate), or 5 µl 4 mM Ac-Ile-Glu-Thr-Asp-p-nitroanilide (Ac-IETD-pNA) (caspase-8-specific substrate) was added and the mixture was incubated at 37°C for 120 min (200 µM final concentration). Absorbance was determined at 405 nm on the ELx800 Universal Microplate Reader available from Bio-Tek Instruments Inc. (Vermont, United States of America).

A further series relates to caspase 3. The series can be described thus: Caspase 3 colorimetric assay in HeLa cells. The conditions noted are these: 0.5 μM, 24 h. Here is the method:
as §2

The test system of series [5] is HeLa cells. In words: Double immunofluorescence of intracellular microtubules. Particulars: 24 h, 0.189 μM ESE-15-one, 0.5 μM EMBS and ESE-16, 1μM colchicine. The method, then: (§3) In order to visualize the effect of the 2ME2 analogues on microtubule dynamics and integrity, a double immunofluorescence technique using antibodies against tyrosinated and detyrsosinated tubulin was conducted as described by Paturle-Lafanechère et al. (2004). HeLa and MDA-MB-231 cells were seeded onto sterilized coverslips and allowed to grow to 80% confluency for 48 h. Cells were exposed to 0.189 μM ESE-15-one, 0.5 μM EMBS and ESE-16 along with DMSO (negative control) and 1μM colchicine as a positive control for 24 h. Cells were permeablised permeabilized with warmed OPT buffer (80 mmol/L Pipes, […], […], 0.5% Triton X-100 and glycerol 10%, pH 6.8), followed by fixation in ice-cold methanol at −20°C and were subsequently incubated with the primary antibody cocktail (PBS containing anti-detyrosinated tubulin (L4), anti-[…], BSA 0.3%, tween 0.1%). After incubation, cells were incubated with the secondary antibodies, namely Alexa 488 (Invitrogen) and Cy3 (Jackson ImmunoResearch laboratories). Samples were visualized using a Zeiss AxioImager Z1 microscope controlled by Axiovision softwared (Carl Zeiss) (X63 oil objective). Images were captured using an Ocra R2 N/B camera (Hamamatsu) and assessed for microtubule integrity and ratio of tyrosinated to detyrosinated tubulin.

Series [6] concerns MDA-MB-231 cells. The series is described as above. The conditions noted are these: MDA-MB-231, 24 h; 0.189 μM ESE-15-one, 0.5 μM EMBS and ESE-16, 1μM colchicine. Here is the method:
as §3

Consider `CCc1cc2c(cc1OS(N)(=O)=O)CC[C@@H]1C2CC[C@]2(C)[C@@H](OS(N)(=O)=O)CC[C@@H]12` (stereo partly drawn) [EMBS, (8R, 13S, 14S, 17S)-2-ethyl-13-methyl-7,8,9, 11, 12,13, 14, 15, 16, 17-decahydro-6H-cyclopenta [a] phenanthrane-3, 17-diyl bis (sulphamate)], for which the “LDH levels / LDH release” value in the series on HeLa cells [1] is “No statistically significant increase in LDH levels”. Further, the “cell debris (TEM)” value with HeLa cells [2] is “Cell debris was observed”. Also, the “vacuoles (TEM)” value with HeLa cells [2] was “vacuoles”. In addition, the “cell shrinkage (TEM)” value in the series with HeLa cells [2] was “shrunken”. The “Cytochrome c in cytoplasm (cells with cytochrome c release)” value (“Cytochrome c in cytoplasm” for short) in the series with HeLa cells [3] and in the series on MDA-MB-231 cells [4] was 21–23% in each case. In the series with caspase-8, the “caspase-8 activity increase compared to vehicle-treated cells” value was found to be 2.6 fold. For the same molecule, the “caspase 3 activity compared to vehicle-treated cells” value in the series on caspase 3 is listed as “more than doubled”. Further, the “microtubule integrity” value in the series with HeLa cells [5] is reported as “microtubule abrogation; also recorded: fragmented microtubules”; in the series with MDA-MB-231 cells [6] it was “detyrosinated microtubule fragments”.

On to `CCc1cc2c(cc1OS(N)(=O)=O)CC[C@@H]1[C@@H]2CC[C@]2(C)C(=O)C=C[C@@H]12` [ESE-15-one, 2-Ethyl-3-O-sulphamoyl-estra-1,3,5 (10) 15-tetraene-3-ol-17one], for which the “LDH levels / LDH release” value with HeLa cells [1] was “No statistically significant increase in LDH levels”. Besides, in the series with HeLa cells [2], the “apoptotic bodies (TEM)” value is reported as “Apoptotic bodies were observed”, the “vacuoles (TEM)” value is “vacuoles” and the “cell shrinkage (TEM)” value is recorded as “shrunken”. The “Cytochrome c in cytoplasm” value in the series with HeLa cells [3] came out at 35%. Besides, the “Cytochrome c in cytoplasm” value in the series on MDA-MB-231 cells [4] worked out at 34%. Further, in the series on caspase-8, the “caspase-8 activity increase compared to vehicle-treated cells” value is 1.7 fold. Besides, the “caspase 3 activity compared to vehicle-treated cells” value in the series with caspase 3 is “more than doubled”. Besides, the “microtubule integrity” value with HeLa cells [5] is given as “microtubule abrogation; also recorded: altered microtubule morphology”. In addition, the “microtubule integrity” value in the series with MDA-MB-231 cells [6] is on record as “detyrosinated microtubule fragments”.
